Measurements published in US20090291950A1, “BICYCLIC HETEROARYL INHIBITORS OF PDE4” (KALYPSYS, INC., priority 2006, published 2009).

Legend:
[1] = biological target: T1, PDE4B (Homo sapiens, UniProt Q07343); assay: coupled PDE/AK bioluminescent assay; format: biochemical; settings: catalytic domain of PDE4B
T1 construct: hexahistidine (His6) (N); made in house
Source text: Phosphodiesterases regulate the activity of the second messenger cyclic adenosine monophosphate (cAMP) by hydrolyzing cAMP to adenosine monophosphate (AMP). We developed a novel coupled PDE/AK bioluminescent high-throughput assay to measure the activity of phosphodiesterases. In the PDE/AK assay, the AMP produced from the hydrolysis of cAMP by phosphodiesterase is converted to adenosine diphosphate (ADP) by the phosphotransferase activity of adenylate kinase (also known as ADK or myokinase). Adenylate kinase will catalyze the conversion of 1 mole of AMP and 1 mole of ATP into 2 moles of ADP. Thus the conversion of AMP to ADP will result in the subsequent loss of ATP. The decrease in ATP concentration can be monitored as light output using luciferase in a reaction that requires ATP to produce light. The PDE/AK assay uses luciferase, which catalyzes the production of light from ATP present in the reaction mix. The amount of emitted light is inversely proportional to the level of AMP present in the reaction. Test compounds are incubated with the phosphodiesterases and phosphodiesterase inhibitors will decrease the rate of cAMP hydrolysis and decrease the subsequent production of AMP. Thus phosphodiesterase inhibitors will decrease the conversion of ATP to ADP and result in the greatest emission of light.
Compounds may be screened for functional potency in in vitro biochemical assays for their ability to inhibit the activity of phosphodiesterase (PDE) enzymes. A novel coupled PDE/AK assay was utilized to measure the inhibitory activity of compounds on PDE isoforms. The catalytic domain of PDE4B was fused to an amino-terminus hex-histidine affinity tag and purified. PDE4B enzyme was incubated with compounds for 10 minutes. Cyclic AMP substrate, ATP and adenylate kinase were then added to the PDE enzyme mix and incubated for 45 minutes at room temperature. A commercial ATP detection assay, Perkin Elmer's easyLite ATP detection reagent, was then added to measure the relative amount of ATP present in the reaction. After 10 minute incubation, the luminescent signal was quantitated with either the Perkin Elmer Viewlux or Molecular Devices Acquest or Analyst. Roflumilast and Rolipram are the positive controls used in the assay.
The PDE/AK assay can be performed with any cAMP dependent phosphodiesterase, and can be performed in 96-, 384-, or 1536-well plates. […] Specifically, the use of radioactive substrates in a phosphodiesterase activity assay requires special protocols for handling and waste disposal, and reduced throughput. Modified substrates add the additional complexity of potentially altering the binding to the phosphodiesterase catalytic site. Fluorescently modified substrates may cause fluorescence artifacts that may interfere in the interpretation of assay results. The use of beads that selectively bind to either the cAMP or AMP may cause an additional complexity in reagent handling. The use of antibodies that selectively bind to either cAMP or AMP can be extremely costly with a relatively small signal to noise ratio. Therefore, the novel PDE/AK assay represents a simple, cost-effective alternative to known methods.

[2] = tested on: dry eye (corneal staining, tear breakup time); assay: Lacrimal gland inflammation-induced dry eye in rabbits; format: in vivo; settings: topical ocular BID, rabbit ConA dry eye
Source text: A more detailed description of the assay used herein may be found in Naglehout, T J et al. 2005, “Preservation of Tear Film Integrity and Inhibition of Corneal Injury by Dexamethasone in a Rabbit Model of Lacrimal Gland Inflammation-Induced Dry Eye,”J. Ocular Pharm. Ther., 21:2. 139-148, the disclosure of which is hereby incorporated by reference as if written herein in its entirety. Rabbits (n=4/group) were randomized into treatment groups and dosed topically BID with maxidex vehicle or test drug beginning one day prior to initiation of dry eye. Each rabbit received bilateral lacrimal gland injections of saline or ConA (300 μg/30 μl) and topical ocular dosing was continued BID throughout the study. Desiccation was initiated 1-2 hours following lacrimal gland injection by placing conscious rabbits in the environmental chamber (10-15% humidity/72° F.). Following 72 consecutive hours of exposure to this dry environment, the animals were anesthetized and sutures were placed in each upper and lower eyelid and lifted to form a corneal/conjunctival cup. Methylene blue dye (1 mL, 1% in dH2O) was added to the cup for three minutes and the excess removed by washing with 200 mL BSS®. The contralateral eye was then stained using the same procedure. Rabbits were euthanized immediately following the staining procedure and the eyes were excised. The corneas were isolated with a trephine and the 9.5-mm punch of the cornea was placed in 2 mL acetone/saturated sodium sulfate (7:3, vol./vol.). Absorbance of the extracted dye was determined at 660 nm. TBUT was quantified in a separate group of treated animals. TBUT was determined by instilling 5 μL sodium fluorescein into the cul de sac and manually blinking the lids to distribute the fluorescein within the tear film. Under slit lamp observation, the eye was held open and the time whereby one or more black spots or streaks appeared in the precorneal tear film was recorded. The rabbits were euthanized 3 days following ConA inj ection.

[3] = 1 × 10^−2 percent concentration
[4] = 1 × 10^−4 percent concentration
[5] = 1 × 10^−6 percent concentration

T1 sequence (Q07343 330-659 limits assumed, species assumed): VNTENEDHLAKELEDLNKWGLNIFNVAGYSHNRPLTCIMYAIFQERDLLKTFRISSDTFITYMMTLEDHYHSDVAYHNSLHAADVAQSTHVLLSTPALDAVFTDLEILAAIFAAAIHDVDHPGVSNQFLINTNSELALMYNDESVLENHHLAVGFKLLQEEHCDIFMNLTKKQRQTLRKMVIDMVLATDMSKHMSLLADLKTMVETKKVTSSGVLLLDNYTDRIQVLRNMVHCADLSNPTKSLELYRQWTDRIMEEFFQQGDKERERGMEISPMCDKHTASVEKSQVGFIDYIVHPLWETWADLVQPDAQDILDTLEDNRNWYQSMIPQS

IC50 [1] | Structure (SMILES) | other results
> 1000 nM | COc1ccc2c(Nc3c(Cl)cccc3Cl)ncnc2c1OC1CCCC1 [Example 1, 8-(Cyclopentyloxy)-N-(2,6-dichlorophenyl)-7-methoxyquinazolin-4-amine] | 
> 1000 nM | COc1ccc2c(Nc3c(Cl)cncc3Cl)ncnc2c1OC1CCCC1 [Example 2, 8-(Cyclopentyloxy)-N-(3,5-dichloropyridin-4-yl)-7-methoxyquinazolin-4-amine] | 
≤ 1000 nM | COc1ccc2c(Cc3c(Cl)cncc3Cl)ncnc2c1OC1CCCC1 [Example 3, 8-(Cyclopentyloxy)-4-[(3,5-dichloropyridin-4-yl)methyl]-7-methoxyquinazoline] | 
> 1000 nM | COc1ccc2c(Nc3c(Cl)cccc3Cl)ccnc2c1OC1CCCC1 [Example 4, 8-(Cyclopentyloxy)-N-(2,6-dichlorophenyl)-7-methoxyquinolin-4-amine] | 
> 1000 nM | COc1ccc2c(Nc3c(Cl)cncc3Cl)ccnc2c1OC1CCCC1 [Example 5, 8-(Cyclopentyloxy)-N-(3,5-dichloropyridin-4-yl)-7-methoxyquinolin-4-amine] | 
> 1000 nM | COc1ccc2c(Cc3c(Cl)cncc3Cl)ccnc2c1OC1CCCC1 [Example 6, 8-(Cyclopentyloxy)-4-[(3,5-dichloropyridin-4-yl)methyl]-7-methoxyquinoline] | 
> 1000 nM | COc1ccc2c(Nc3c(Cl)cccc3Cl)nccc2c1OC1CCCC1 [Example 7, 5-(Cyclopentyloxy)-N-(2,6-dichlorophenyl)-6-methoxyisoquinolin-1-amine] | 
≤ 1000 nM | COc1ccc2c(Nc3c(Cl)cncc3Cl)nccc2c1OC1CCCC1 [Example 8] | 
> 1000 nM | COc1ccc2c(Cc3c(Cl)cncc3Cl)nccc2c1OC1CCCC1 [Example 9, 5-(Cyclopentyloxy)-1-[(3,5-dichloropyridin-4-yl)methyl]-6-methoxyisoquinoline] | 
> 1000 nM | COc1ccc2c(Nc3c(Cl)cncc3Cl)coc2c1OC1CCCC1 [Example 10, 3,5-Dichloro-N-[7-(cyclopentyloxy)-6-methoxybenzofuran-3-yl]pyridine-4-amine] | 
> 1000 nM | COc1ccc2c(Nc3c(Cl)cccc3Cl)ccnc2c1OC [Example 11, N-(2,6-Dichlorophenyl)-7,8-dimethoxyquinolin-4-amine] | 
> 1000 nM | COc1ccc2c(NCc3c(Cl)cccc3Cl)coc2c1OC1CCCC1 [Example 12, 7-(Cyclopentyloxy)-N-(2,6-dichlorobenzyl)-6-methoxybenzofuran-3-amine] | 
> 1000 nM | COc1ccc2c(Nc3c(Cl)cnc(Cl)c3Cl)ccnc2c1OC1CCCC1 [Example 13, 8-(Cyclopentyloxy)-7-methoxy-N-(2,3,5-trichloropyridin-4-yl)quinolin-4-amine] | 
> 1000 nM | COc1ccc2c(Nc3c(Cl)c(Cl)nc(Cl)c3Cl)ccnc2c1OC1CCCC1 [Example 14, 8-(Cyclopentyloxy)-7-methoxy-N-(perchloropyridin-4-yl)quinolin-4-amine] | 
> 1000 nM | COc1ccc2c(Nc3c(C)cncc3C)ccnc2c1OC1CCCC1 [Example 15, 8-(Cyclopentyloxy)-N-(3,5-dimethylpyridin-4-yl)-7-methoxyquinolin-4-amine] | 
> 1000 nM | COc1ccc2c(Nc3c(Br)cncc3Br)ccnc2c1OC1CCCC1 [Example 16, 8-(Cyclopentyloxy)-N-(3,5-dibromopyridin-4-yl)-7-methoxyquinolin-4-amine] | 
> 1000 nM | COc1ccc2c(c1OC1CCCC1)OCCC2Nc1c(Cl)cncc1Cl (centres unmarked) [Example 17, 3,5-Dichloro-N-(8-(cyclopentyloxy)-7-methoxychroman-4-yl)pyridin-4-amine] | 
> 1000 nM | COc1ccc2c(C(=O)Nc3c(Cl)cncc3Cl)coc2c1OC1CCCC1 [Example 18, 7-(Cyclopentyloxy)-N-(3,5-dichloropyridin-4-yl)-6-methoxybenzofuran-3-carboxamide] | 
≤ 1000 nM | COc1cc(Nc2c(Cl)cncc2Cl)c2ccc(OC)c(OC3CCCC3)c2n1 [Example 19, 8-(Cyclopentyloxy)-N-(3,5-dichloropyridin-4-yl)-2,7-dimethoxyquinolin-4-amine] | 
≤ 1000 nM | CCOc1cc(Nc2c(Cl)cncc2Cl)c2ccc(OC)c(OC3CCCC3)c2n1 [Example 20, 8-(Cyclopentyloxy)-N-(3,5-dichloropyridin-4-yl)-2-ethoxy-7-methoxyquinolin-4-amine] | 
≤ 1000 nM | COc1ccc2c(Nc3c(Cl)cncc3Cl)cc(N(C)C)nc2c1OC1CCCC1 [Example 21, 8-(Cyclopentyloxy)-N4-(3,5-dichloropyridin-4-yl)-7-methoxy-N2,N2-dimethylquinoline-2,4-diamine] | 
≤ 1000 nM | CNc1cc(Nc2c(Cl)cncc2Cl)c2ccc(OC)c(OC3CCCC3)c2n1 [Example 22, 8-(Cyclopentyloxy)-N4-(3,5-dichloropyridin-4-yl)-7-methoxy-N2-methylquinoline-2,4-diamine] | 
≤ 1000 nM | COc1ccc2c(Nc3c(Cl)cncc3Cl)cc(N)nc2c1OC1CCCC1 [Example 23, 8-(Cyclopentyloxy)-N4-(3,5-dichloropyridin-4-yl)-7-methoxyquinoline-2,4-diamine] | Activity at Percent Concentration Tested [2, 3]: Inactive; Activity at Percent Concentration Tested [2, 4]: Inactive; Activity at Percent Concentration Tested [2, 5]: Inactive
≤ 1000 nM | COc1ccc2c(Nc3c(Cl)cncc3Cl)cc(Cl)nc2c1OC1CCCC1 [Example 24, 2-Chloro-8-(cyclopentyloxy)-N-(3,5-dichloropyridin-4-yl)-7-methoxyquinolin-4-amine] | 
≤ 1000 nM | COc1ccc2c(Nc3c(Cl)cncc3Cl)cc(OCCN(C)C)nc2c1OC1CCCC1 [Example 25, 8-(Cyclopentyloxy)-N-(3,5-dichloropyridin-4-yl)-2-(2-(dimethylamino)ethoxy)-7-methoxyquinolin-4-amine] | Activity at Percent Concentration Tested [2, 3]: Inactive; Activity at Percent Concentration Tested [2, 4]: Inactive; Activity at Percent Concentration Tested [2, 5]: Inactive
≤ 1000 nM | COc1ccc2c(Nc3c(Cl)cncc3Cl)c(Cl)c(OCCN(C)C)nc2c1OC1CCCC1 [Example 26, 3-Chloro-8-(cyclopentyloxy)-N-(3,5-dichloropyridin-4-yl)-2-(2-(dimethylamino)ethoxy)-7-methoxyquinolin-4-amine] | 
≤ 1000 nM | COc1ccc2c(Nc3c(Cl)cncc3Cl)cc(OCCO)nc2c1OC1CCCC1 [Example 27, 2-(8-(Cyclopentyloxy)-4-(3,5-dichloropyridin-4-ylamino)-7-methoxyquinolin-2-yloxy)ethanol] | 
≤ 1000 nM | COc1ccc2c(Nc3c(Cl)cncc3Cl)cc(OCCN3CCOCC3)nc2c1OC1CCCC1 [Example 28, 8-(Cyclopentyloxy)-N-(3,5-dichloropyridin-4-yl)-7-methoxy-2-(2-morpholinoethoxy)quinolin-4-amine] | 
≤ 1000 nM | COc1ccc2c(Nc3c(Cl)cncc3Cl)cc(OCCCN(C)C)nc2c1OC1CCCC1 [Example 29, 8-(Cyclopentyloxy)-N-(3,5-dichloropyridin-4-yl)-2-(3-(dimethylamino)propoxy)-7-methoxyquinolin-4-amine] | 
